Results from patent US20260007733A1, “Specific Saccharide Fragment for Development of Vibrio Cholerae Vaccines” (priority 2024, published 2026).

System: IgG antibodies in anti-sera immunized with the lipopolysaccharide of the V. cholerae O100 serotype
Test: Glycan microarray screening of saccharide fragments with rabbit anti-sera
Type: binding
Settings: rabbit sera diluted 1:200; goat anti-rabbit IgG secondary antibodies 1:400; FIG. 9
Experimental: Step 1: The obtained sugar fragment is dissolved in a 50 mM phosphate solution (pH=8.5), printed onto the microarray using a microarray spotter, and incubated at room temperature and 65% humidity overnight to covalently bind the saccharide fragment to the microarray; and after incubation, the microarray is quenched by treatment with a mixed solution of […] solution (pH=9) at 50° C. for 1 h.
Step 2: The glycan microarray is probed with diluted rabbit anti-sera and co-incubated to specifically bind IgG antibodies in the anti-sera to the saccharide fragment, and unbound serum antibodies are washed away; and subsequently, fluorescently labeled secondary antibodies (anti-IgG antibodies) are used to bind the IgG antibodies on the microarray and incubated, and unbound secondary antibodies are washed away.
Synthetic oligosaccharides and LPS were dissolved in a coupling buffer (50 mM sodium phosphate, pH=8.5) for printing onto a “CodeLink” slide (SurModics Co., Ltd.) using an RMA-Arrayer 96 (Rayme China). Then the slide was incubated overnight in a humidifying chamber at 26° C. and 55% humidity. The slide and the microarray were incubated in a quenching buffer ([…] ethanolamine) at 50° C. for 1 h. […]

CC(=O)NC1C(O)[C@H](NC(C)=O)C(C)O[C@H]1OCN (stereo partly shown) [Compound 10]
antigenicity / recognition by the antibodies (glycan microarray, fluorescence): cannot be recognized by the antibodies
